{"source": "patent US4689318A", "about": "“GRF analogs” (The Salk Institute for Biological Studies, priority 1985, dated 1987)", "tested_on": "cells of rat pituitary glands", "experiment": "in vitro GH release from cultured rat pituitary cells, side-by-side with synthetic hGRF(1-40)-OH standard, ir GH by radioimmunoassay", "format": "cell-based", "conditions": "equimolar concentrations; rat pituitary cell cultures; 4 hours incubation; immunoreactive GH in culture medium", "experimental": "As an example of testing the effectiveness of the synthetic peptide of Example I to promote the release of growth hormone, in vitro assays are carried out using synthetic hGRF(1-40)-OH as a standard in side-by-side comparison with equimolar concentrations of the various other analogs and fragments synthesized. Cultures are used which include cells of rat pituitary glands removed four days previous to testing. Cultures which are considered optimal for the secretion of growth hormone are used for the comparative testing, in the general manner described in Vale et al. Endocrinology, 91, 562-572 (1972) and as more particularly described in Vale et al., Endocrinology, 112, 1553-1555 (1983). Incubation with the substance to be tested is carried out for 4 hours, and aliquots of the culture medium are removed and processed to measure their respective content of immunoreactive GH(ir GH) by a well-characterized radioimmunoassay.", "note": "No end group written: not given here."}
{"substance": "YADAIFSSAYRRLLAQLASRRLLQELLAR [Example II, [Ser^7,8,19, Ala^9,15,18,28, Arg^12,21, Leu^13,26,27]-hGRF(1-29)-OH]", "values": [{"measurement": "potency to promote the release of growth hormone relative to the hpGRF(1-40)-OH standard", "result": "equivalent to the hpGRF(1-40)-OH standard"}]}
{"substance": "YADAIFSSAYRRLLAQLASRRLLQELLAR-NH2 [Example I, [Ser^7,8,19, Ala^9,15,18,28, Arg^12,21, Leu^13,26,27]-hGRF(1-29)-NH2]", "values": [{"measurement": "potency to promote the release of growth hormone relative to the hpGRF(1-40)-OH standard", "result": "equivalent to the hpGRF(1-40)-OH standard"}]}
